“And” between values parts separate entries of the source, which are not always exact repeats. Equal entries are not always repeated. Numbers after ± are expanded uncertainties.
Settings: Liquid, Hot wire method

CCCCOCCO [2-butoxyethan-1-ol]
thermal conductivity
Settings	304.15 K	321.15 K	338.15 K
100 kPa	0.1529 ± 0.001 W/m/K and 0.1533 ± 0.001 W/m/K	0.1497 ± 0.0009 W/m/K and 0.1496 ± 0.0009 W/m/K	0.1461 ± 0.0009 W/m/K and 0.1463 ± 0.0009 W/m/K
16400 kPa	0.1579 ± 0.001 W/m/K	0.1548 ± 0.001 W/m/K	0.1518 ± 0.001 W/m/K
27300 kPa	0.1612 ± 0.001 W/m/K	0.1585 ± 0.001 W/m/K	0.1555 ± 0.001 W/m/K
41800 kPa	0.1646 ± 0.001 W/m/K	0.1628 ± 0.001 W/m/K	0.1601 ± 0.001 W/m/K
56100 kPa	0.1689 ± 0.0011 W/m/K	0.1665 ± 0.001 W/m/K	0.164 ± 0.001 W/m/K
70200 kPa	0.1722 ± 0.0011 W/m/K	0.1701 ± 0.0011 W/m/K	0.1677 ± 0.001 W/m/K
79000 kPa	0.174 ± 0.0011 W/m/K	–	–
83500 kPa	0.1749 ± 0.0011 W/m/K	–	–
84200 kPa	–	0.1739 ± 0.0011 W/m/K	0.1717 ± 0.0011 W/m/K
98200 kPa	0.1785 ± 0.0011 W/m/K	0.177 ± 0.0011 W/m/K	0.1751 ± 0.0011 W/m/K
108700 kPa	–	–	0.1775 ± 0.0011 W/m/K
112200 kPa	0.182 ± 0.0011 W/m/K	0.18 ± 0.0011 W/m/K	–
123400 kPa	–	–	0.1807 ± 0.0011 W/m/K
124100 kPa	0.1836 ± 0.0011 W/m/K	–	–
126200 kPa	–	0.183 ± 0.0011 W/m/K	–
134900 kPa	–	0.1851 ± 0.0011 W/m/K	–
140100 kPa	0.187 ± 0.0012 W/m/K	–	0.1844 ± 0.0011 W/m/K
149200 kPa	0.1885 ± 0.0012 W/m/K	–	–
150600 kPa	–	0.1879 ± 0.0012 W/m/K	–
